Data reported in patent US8084459B2, “Substituted quinazolinones for treating neurological conditions” (Prana Biotechnology Ltd, priority 2004, dated 2011).

Tests used:
[1] = Assay 16 mouse plasma levels of test compounds; assay type: in vivo; conditions: for Assay 16 Mice plasma concentration: highest level found in mice (Up to), oral dosing 30 mg/kg described for PB 1075-1077; for Conc. in mouse plasma / concentration at 30 min / concentration at 60 min: single mouse; for concentration at 30 min / concentration at 60 min: mouse, plasma, po, 30 mg/kg, read-out: Conc. in mouse plasma
Procedure, shortened: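 Compound given orally by gavage at 30 mg/kg as CMC suspension to four mice; two sacrificed at 30 min and two at 60 min, plasma from cardiac blood. Plasma levels by LC/MS (triple quadrupole, C8 column, ACN/water 0.05% formic acid gradient) after ACN protein precipitation.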

Aβ 1-42 = biological target: T1, Aβ 1-42 (Homo sapiens, UniProt P05067); assay: Assay 1 Fluorometric H2O2 assay (peroxide); assay type: biochemical; conditions: inhibition of H2O2 generation by Aβ with copper
T1 construct: The reaction solutions contained Aβ 1-42 at concentrations
T1 sequence (P05067 672-713 limits assumed): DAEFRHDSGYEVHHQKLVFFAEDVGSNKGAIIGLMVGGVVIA
Procedure, shortened: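 DCF fluorescence (ex 485/em 530 nm) after 60 min at 37 °C in PBS pH 7.4; Aβ 1-42 (50 nM–1 μM) with Cu-Gly (2:1 to Aβ), dopamine 5 μM or ascorbate, deacetylated DCF 100 μM, HRP 0.1 μM, and test compound. H2O2 quantified against H2O2 standards.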

Aβ plaques = assay: Assay 14 transgenic mouse brain immunohistochemistry (plaque score); assay type: in vivo; conditions: APP2576 mice
Excerpt: Assay 14. Transgenic Mouse Brain Immunohistochemistry
The APP2576 transgenic mouse (Hsiao et al., 1996) as referred to in Assay 11 is utilized in this assay. The contralateral formalin-fixed mouse brain tissue is coronally cut. Sections (10 μm) are taken from the corresponding sites and treated with 80% formic acid for antigen retrieval. The primary antibody used is monoclonal antibody 1E8, which recognizes epitopes between residues 18 and 22 of Aβ (SmithKline Beecham, UK). Immunoreactivity is developed with secondary antibody linked to horseradish peroxidase (using a 3,39-diaminobenzidinechromagen) (Dako) and alkaline phosphatase (using 5-bromo-4-chloro 3-indoxyl phosphate and nitroblue tetrazolium chloride chromagen) (Dako). Plaque abundance per section is assessed by two operators blinded to treatment according to the following scale:
1=plaques present but very sparse
2=several plaques present
3=numerous plaques visible in restricted areas
4=plaques abundant and not restricted to any particular area.
Intermediate values eg 2.5 are assigned where applicable. Students ‘t’ test is used for comparisons between groups.

[2] = 30 min after oral dosing at 30 mg/kg
[3] = 60 min after oral dosing at 30 mg/kg

Assay 16 Mice plasma concentration [1]	IC50 (Aβ 1-42)	Conc. in mouse plasma ([1]; 30 min after oral dosing at 30 mg/kg, listed as PB 1075, 30 mg/kg)	Conc. in mouse plasma ([1]; 60 min after oral dosing at 30 mg/kg, listed as PB 1075, 30 mg/kg)	concentration at 30 min [1, 2]	concentration at 60 min [1, 3]	Conc. in mouse plasma ([1]; 30 min after oral dosing at 30 mg/kg, listed as PB 1077, 30 mg/kg)	Conc. in mouse plasma ([1]; 60 min after oral dosing at 30 mg/kg, listed as PB 1077, 30 mg/kg)	SMILES	Plaques score: average count score per treatment group relative to the vehicle (sham) treated group (Aβ plaques)
Upto 3644 ng/mL	370 nM	–	–	–	–	–	–	Cc1noc(C)c1Cn1cnc2c(O)c(Cl)cc(Cl)c2c1=O [Compound 1085]	–
Upto 2439 ng/mL	360 nM	–	–	–	–	–	–	Cc1nc(Cn2cnc3c(O)c(Cl)cc(Cl)c3c2=O)cs1 [Compound 1084]	−21% (plaque)
Up to 520 ng/mL	730 nM	298.46 ng/mL	424.81 ng/mL	431 ng/mL	520 ng/mL	–	–	O=c1c2c(Cl)cc(Cl)c(O)c2ncn1CCN1CCCC1 [Compound 1075]	−22% (plaque)
Up to 984 ng/mL	480 nM	–	–	731 ng/mL	495 ng/mL	984.7 ng/mL	752.8 ng/mL	O=c1c2c(Cl)cc(Cl)c(O)c2ncn1Cc1ccccn1 [Compound 1077]	−30% (plaque)

SMILES	Assay 16 Mice plasma concentration [1]	IC50 (Aβ 1-42)	Conc. in mouse plasma ([1]; 30 min after oral dosing at 30 mg/kg, listed as PB 1075, 30 mg/kg)	Conc. in mouse plasma ([1]; 60 min after oral dosing at 30 mg/kg, listed as PB 1075, 30 mg/kg)	concentration at 30 min [1, 2]	concentration at 60 min [1, 3]	Conc. in mouse plasma ([1]; 30 min after oral dosing at 30 mg/kg, listed as PB 1077, 30 mg/kg)	Conc. in mouse plasma ([1]; 60 min after oral dosing at 30 mg/kg, listed as PB 1077, 30 mg/kg)	Plaques score: average count score per treatment group relative to the vehicle (sham) treated group (Aβ plaques)
Br.CCCn1cnc2c(O)c(Cl)cc(Cl)c2c1=O [Compound 1097]	Upto 261 ng/mL in	280 nM	–	–	–	–	–	–	−3% (plaque)
